Source: patent US20240245805A1 (Orna Therapeutics, Inc., priority 2020, published 2024)
Like-named read-outs stand apart in the source and are kept apart here.

What was measured:
[1] = cited from earlier work
[2] = system: 1C1C7 cells; test: 5′ UTR variants, GLuc in 1C1C7 cells; type: cell-based; details: CK IRES with 5′ UTR variants
Description: This example describes modifications of circular RNAs by inserting 5′ UTR variants. […] 1C1C7 cells were transfected with the circular RNAs.

[3] = system: 1C1C7 cells; test: GLuc luminescence and functional stability by IRES, 1C1C7 cells
[4] = system: HEK293 cells; type: cell-based, human; details: circular RNA encoding Gluc with the listed IRES (UTR truncated to 675 nt) transfected into HEK293 cells; supernatant after 24 hours
[5] = Table 2, lipids of Formula (II)

CCCCCCCCC(CCCC)COC(=O)CCCCCCCCC(CCCCCCCCC(=O)OCC(CCCC)CCCCCC)N(CCCN(C)C)C(=O)C(CC)CCCCC (stereo not shown) [II-35]
pKa [1, 5]: 5.97

CCCCCCCCC(=O)N(CCCN(C)C)C(CCCCCCCCC(=O)OCC(CCCC)CCCC)CCCCCCCCC(=O)OCC(CCCC)CCCCCC (stereo not shown) [II-9]
pKa [1, 5]: 6.27

CCCCCCCCC(CCCCCC)CCCOC(=O)CCCCCN(CCCCCC(=O)OCC(CCCCCC)CCCCCCCC)CCN(C)CC (stereo not shown) [Lipid I-33]
pKa ([1]; Table 1, lipids of Formula I): 6.27

UTR2: 5′ UTR variant: canonical Kozak sequence with "a 36-nucleotide unstructured/low GC spacer sequence" added (UTR2) (DNA AATAAGAGAGAAAAGAAGAGTAAGAAGAAATATAAGAGCCACC; 5' UTR segment within a circular RNA construct, further chemistry not given here)
translation [2]: more effective

UTR3: 5′ UTR variant: "a higher-GC/structured spacer with a kozak sequence" (UTR3) (DNA CGAACTAGTATTCTTCTGGTCCCCACAGACTCAGAGAGAACCCGCCACC; 5' UTR segment within a circular RNA construct, further chemistry not given here)
translation [2]: did not show the same benefit

CCCCCCCCC(CCCCCC)CCCOC(=O)CCCCCN(CCCCCC(=O)OCC(CCCCCC)CCCCCCCC)CCN(C)C (stereo not shown) [Lipid I-22]
pKa ([1]; Table 1, lipids of Formula I): 6.53

CCCCCCCCCCCCC(CCCCCCCCCC)C(=O)OCCCCCCN(CCCCCCOC(=O)C(CCCCCCCCCC)CCCCCCCCCCCC)CCN(C)C (stereo not shown) [Lipid I-39]
pKa ([1]; Table 1, lipids of Formula I): 6.82

B1: Salivirus A SZ-1 (nucleic acid)
DNA: TCTGTCCTCACCCCATCTTCCCTTCTTTCCTGCACCGTTACGCTTACTCGCATGTGCATTGAGTGGTGCACGTGCTTGAACAAACAGCTACACTCACATGGGGGCGGGTTTTCCCGCCCTGCGGCCTCTCGCGAGGCCCACCCCTCCCCTTCCTCCCATAACTACAGTGCTTTGGTAGGTAAGCATCCTGATCCCCCGCGGAAGCTGCTCACGTGGCAACTGTGGGGACCCAGACAGGTTATCAAAGGCACCCGGTCTTTCCGCCTTCAGGAGTATCCCTGCTAGTGAATTCTAGTAGGGCTCTGCTTGGTGCCAACCTCCCCCAAATGCGCGCTGCGGGAGTGCTCTTCCCCAACTCACCCTAGTATCCTCTCATGTGTGTGCTTGGTCAGCATATCTGAGACGATGTTCCGCTGTCCCAGACCAGTCCAGTAATGGACGGGCCAGTGTGCGTAGTCGTCTTCCGGCTTGTCCGGCGCATGTTTGGTGAACCGGTGGGGTAAGGTTGGTGTGCCCAACGCCCGTACTTTGGTGATACCTCAAGACCACCCAGGAATGCCAGGGAGGTACCCCGCTTCACAGCGGGATCTGACCCTGGGCTAATTGTCTACGGTGGTTCTTCTTGCTTCCACTTCTTTCTACTGTTCATG
modifications: source: /note="Description of Unknown: Salivirus A sequence"
luminescence at 24 hours [3]: produced high luminescence

B2: EV F1 BEV 261 (nucleic acid, listed as Enterovirus sp.)
chain: GCAATGCTGCACCAGTGCACTGGTACGCTAGTACCTTTTCACGGAGTAGATGGTATCCCTTACCCCGGAACCTAGAAGATTGCACACAAACCGACCAATAGGCGCACCGCATCCAGCCGTGCAGCGGTCAAGCACTTCTGTCTCCCCGGTCTGTAAAGATCGTTATCCGCCCGACCCACTACGAAAAGCCTAGTAACTGGCCAAGTGAACGCGAAGTTGCGCTCCGCCACAACCCCAGTGGTAGCTCTGGAAGATGGGGCTCGCACCACCCCCGTGGTAACACGGTTGCCTGCCCGCGTGTGCTTCCGGGTTCGGTCTCGTGCCGTTCACTTCAACTTCACGCAACCAGCCAAGAGCCTATTGTGCTGGGACGGTTTTCCTCCGGGGCCGTGAATGCTGCTAATCCCAACCTCCGAGCGTGTGCGCACAATCCAGTGTTGCTACGTCGTAACGCGTAAGTTGGAGGCGGAACAGACTACTTTCGGTACCCCGTGTTTCCTCTCATTTTATTTAATATTTTATGGTGACAATTGTTGAGATTTGCGCTCTTGCAACGTTGCCATTGAATATTGGCTTATACTATTTGGTTGCCTTTTACAAAACCTCTGATATACCCAGTTCTTACATTGATCTGCTTGTTTTTCTCAATTTGAAGTATAGACTACAAATAGCAAA
modifications: lipid formulation
Expression (luminescence from secreted Gluc protein) [4]: 1.12E+07

B3: EV D94 (nucleic acid, listed as Enterovirus sp.)
chain: CGTGGCGGCCAGTACTCTGGTATCACGGTACCTTTGTACGCCTGTTTTATATCCCCTTCCCCCGCAACTTAGAAGAAAACAAATCAAGTTCACTAGGAGGGGGTACAAACCAGTACCACCACGAACAAGCACTTCTGTTTCCCCGGTGATGTCGTATAGACTGTAACCACGGTTGAAAACGATTGATCCGTTATCCGCTCTTGTACTTCGAAAAGCCCAGTATCACCTTGGAATCTTCGATGCGTTGCGCTCAGCACTCAACCCCAGAGTGTAGCTTAGGTCGATGAGTCTGGACACTCCTCACCGGCGACGGTGGTCCAGGCTGCGTTGGCGGCCTACCTGTGGTCCAAAGCCACAGGACGCTAGTTGTGAACAAGGTGTGAAGAGCCTATTGAGCTACAAGAGAATCCTCCGGCCCCTGAATGCGGCTAATCCTAACCACGGAGCAAGGGTACACAAACCAGTGTATATCTTGTCGTAACGCGCAAGTCTGTGGCGGAACCGACTACTTTGGGTGTCCGTGTTTCCTTTTGTTTTTATCATGGCTGCTTATGGTGACAATCTAAGATTGTTATCATATAGCTGTTGGATTGGCCATCCGGTAATTTATTGAGATTTGAGCATTTGCTTGTTTCTTCAACAATTTCACCTATTCATTGCATTTCAGCAGTCAAA
modifications: lipid formulation
Expression (luminescence from secreted Gluc protein) [4]: 9.25E+07

B4: EV C102 (nucleic acid, listed as Enterovirus sp.)
chain: CTTTGTACGCCTGTTTTACATCCCCTCCCCCACGTAACTTTAGAAGCAATTCAACAAGTTCAATAGAGGGGGTACAAACCAGTATCACCACGAACAAGCACTTCTGTTTCCCCGGTGATTTTACATAAGCTGTGCCCACGGCTGAAAGTGAATGATCCGTTACCCGCTCGAGTACTTCGAAAAGCCTAGTATCGCTTTGGGATCTTCGACGCGTTGCGCTCAGCACTCTACCCCGAGTGTAGCTTAGGCTGATGAGTCTGGGCATTCCCCATCGGCGACGATGGCCCAGGCTGCGTTGGCGGCCTACCCATGGCTAACGCCATGGGACGCTAGTTGTGAACAAGGTGTGAAGAGCCTATTGAGCTACTCGAGAGTCCTCCGGCCCCTGAATGCGGCTAATCCCAACCACGGATCAGGTGCCTCCAACCCAGGAGGTGGCCTGTCGTAACGCGCAAGTCTGTGGCGGAACCGACTACTTTGGGTGTCCGTGTTTCCTTTTATCTTTTAAATGGCTGCTTATGGTGACAATCATAGATTGTTATCATAAAGCGAATTGGATTGGCCATCCGGTGAAATACAAACACATTATTTACTTGTTTGTTGGATTTACTCCGCTCACACAGCTTACTCCTAAGATAATATTTATTGTATTGCTGGTAAGGAGACACTATTATA
modifications: lipid formulation
Expression (luminescence from secreted Gluc protein) [4]: 8.85E+07

B5: EV 30 (nucleic acid, listed as Enterovirus sp.)
chain: AAGCAAGGCAAACCTGACCAATAGTAGGTGTGGCACACCAGCCGCATTTTGGTCAAGCACTTCTGTTTCCCCGGACCGAGTATCAATAAGCTGCTCACGCGGCTGAAGGAGAAACCGTTCGTTACCCGACCAGCTACTTCGAGAAACCTAGTAACACTATGAACGTTGCGGAGTGTTTCGTTCAGCACTTCCCCCGTGTAGATCAGGTCGATGAGTCACCGCATTCCTCACGGGTGACCGTGGCGGTGGCTGCGTTGGCGGCCTGCCTACGGGTTCGCCCGTAGGACGCTCTAATACCGACATGGTGTGAAGAGTCCATTGAGCTAGCTGGTAGTCCTCCGGCCCCTGAATGCGGCTAATCCTAACTGCGGAGCAGGTGCTCACAGACCAGTGAGTAGCCTGTCGTAACGGGCAACTCTGCAGCGGAACCGACTACTTTGGGTGTTTTTCCTTTTTTCTTCTCTTATATTGGCTGCTTATGGTGACAATTAAAGAATTGTTACCATATAGCTATTGGATTGGCCATCCGGTGACGAGCAGAGCCATTGTTTACCTCTTTGTTGGATTTGTACCTTTGAACCACAAAGTCTTGAATACCATTCATCTCATTTTAAAGTTCAACTCAGCTAAAAGAAA
modifications: lipid formulation
Expression (luminescence from secreted Gluc protein) [4]: 5.48E+06

B6: PSIV (2x mut for Xbal) (nucleic acid)
DNA: GCAAAATGGGTACGTAGTTAACCACTGCGTATCAGGATTGCAGGCCACGAAGGGTATTTGCATATCTTTCTATGCGGTATTACGGCTTAAAACCCGTTGTATCTTGTTGTTTGACTGCCTGTATCACTAGTGGCCATTTTATTTAGGTTAGAGACCCCTGATAGTAGGAGAGTTACAAACTCTTTAAAAATTGTTGACCCCGGAAAAGATGGTGACCCCTGTAAGTAGTTGATCAAGAAGATCTATGCGCTGGCATAGTAATCCAGTGTTTCCTGTTTTAGGATGACCTCTGAAAGTAGATGACCGTGGAAAGTCACGTAGTGCCCCAATAAGCACGTTTGGGCAGCGTGCGCTATCACAAGGCTTGATCTCCGAGGAGCCCCTTGTTTTAGCTGGCTGGAAGCCAATGATCTTAAGTAGATAAGTGCTGTTGCTTGTAGTTCAACAGAAAGCTTTGAGTACGTCTTTCTTGCGAGAAAGAACACATGCATTCTTATGCTCTCAATTCTATTATTTTTATTTTGGGCGAAAGGAAAGCTCTCACGCGAGTACGAATAGCCAACCCTTTAT
modifications: lipid formulation
Expression (luminescence from secreted Gluc protein) [4]: 9.70E+04
